From patent US20050014765A1, “Aryl-heteroaromatic products, compositions comprising them and use” (Aventis Pharma S.A., priority 2003, published 2005)
Where a name gives a salt, the structure may show the parent alone.

Key:
[1] = target: T1, Tubulin purified from pig brains (Sus scrofa, UniProt P02550+P02554); assay: Assessment of the inhibition of tubulin polymerization (turbidimetry at 350 nm); assay type: biochemical; conditions: concentration which inhibits the rate of polymerization by 50%; tubulin 1 mg/ml, 37° C.; read-out: Inhibition of tubulin polymerization IC 50
T1 construct: Tubulin is purified from pig brains according to published methods; from tissue; host or cells: pig brain
Method: Assessment of the Inhibition of Tubulin Polymerization
Tubulin is purified from pig brains according to published methods (Shelanski et al., 1973, Proc. Natl. Acad. Sci. USA, 70, 765-768. Weingarten et al., 1975, Proc. Natl. Acad. Sci. USA, 72, 1858-1862). Briefly, the brains are ground and centrifuged in an extraction buffer. The tubulin, present in the extract supernatant is subjected to two successive cycles of polymerization at 37° C. and depolymerization at 4° C., before being separated from the MAPs (Microtubule Associated Proteins) by chromatography on a phosphocellulose P11 column (Whatman). The tubulin thus isolated is more than 95% pure. It is stored in a buffer known as RB/2 30% glycerol, the composition of which is 50 mM MES-NaOH [2-(N-morpholino)ethanesulfonic acid], pH 6.8; 0.25 mM MgCl2; 0.5 mM EGTA; 30% (v/v) glycerol, 0.2 mM GTP (guanosine 5′-triphosphate).
The polymerization of the tubulin into microtubules is monitored by turbidimetry as follows: the tubulin is adjusted to a concentration of 10 μm (1 mg/ml) in the RB/2 30% glycerol buffer, to which are added 1 mM GTP and 6 mM MgCl2. The polymerization is initiated by increasing the temperature from 6° C. to 37° C. in a cuvette with a 1 cm optical pathlength, placed in a UVIKON 931 spectrophotometer (Kontron) equipped with a thermostatically-regulated cuvette holder. The increase in turbidity of the solution is monitored at 350 nm.
The products are dissolved at 10 mM in DMSO and added at variable concentrations (0.5 to 10 μm) to the tubulin solution before polymerization. The IC50 is defined as the concentration of the product which inhibits the rate of polymerization by 50%.

HCT116 cells = assay: Inhibition of proliferation of the HCT116 human colon tumor line ([14C]-thymidine incorporation); assay type: cell-based; conditions: HCT-116, 48 hours incubation at 37° C., read-out: Inhibition of HCT116 proliferation IC 50
Method: Test for Determining the Inhibition of Proliferation of the HCT116 Human Colon Tumor Line
The proliferation of HCT116 cells is evaluated by mesuring the incorporation of [^14C]-thymidine in the following way. The HCT166 cells (from the ATCC) are cultured in a DMEM medium (Gibco) which contains 10% of fetal calf serum and antibiotics (1% penicillin, 1% streptomycin). To perform the proliferation test, the cells are seeded into 96-well cytostar microplates (Amersham) at the rate of 5000 cells per well. The [^14C]-thymidine (0.1 μCi/well) and the products to be evaluated are subsequently added. Variable concentrations of products up to 10 μM are used; the DMSO (solvent used to dissolve the products) should not exceed 0.5% in the medium. 48 hours after incubation at 37° C., the radioactivity incorporated into the cells is measured by counting the plate in a Tri-Lux counter (Wallac). The IC50 is defined as the concentration of product which reduces the radioactivity by 50% compared with an untreated control. A product with an IC50 of less than 10 μm is regarded as cytotoxic.

T1 sequence (P02550 whole entry): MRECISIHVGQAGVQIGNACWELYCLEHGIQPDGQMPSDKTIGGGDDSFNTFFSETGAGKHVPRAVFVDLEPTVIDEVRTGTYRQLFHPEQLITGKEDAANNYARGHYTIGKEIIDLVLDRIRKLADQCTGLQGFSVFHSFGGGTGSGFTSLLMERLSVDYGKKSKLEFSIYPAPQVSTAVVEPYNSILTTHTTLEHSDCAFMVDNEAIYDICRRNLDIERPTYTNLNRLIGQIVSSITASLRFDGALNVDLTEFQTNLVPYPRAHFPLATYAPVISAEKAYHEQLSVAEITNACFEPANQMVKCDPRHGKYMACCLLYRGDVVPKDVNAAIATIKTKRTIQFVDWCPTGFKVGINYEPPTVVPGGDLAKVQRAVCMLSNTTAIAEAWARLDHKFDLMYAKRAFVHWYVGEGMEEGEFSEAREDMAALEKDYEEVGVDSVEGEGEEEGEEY
T1 sequence (P02554 whole entry): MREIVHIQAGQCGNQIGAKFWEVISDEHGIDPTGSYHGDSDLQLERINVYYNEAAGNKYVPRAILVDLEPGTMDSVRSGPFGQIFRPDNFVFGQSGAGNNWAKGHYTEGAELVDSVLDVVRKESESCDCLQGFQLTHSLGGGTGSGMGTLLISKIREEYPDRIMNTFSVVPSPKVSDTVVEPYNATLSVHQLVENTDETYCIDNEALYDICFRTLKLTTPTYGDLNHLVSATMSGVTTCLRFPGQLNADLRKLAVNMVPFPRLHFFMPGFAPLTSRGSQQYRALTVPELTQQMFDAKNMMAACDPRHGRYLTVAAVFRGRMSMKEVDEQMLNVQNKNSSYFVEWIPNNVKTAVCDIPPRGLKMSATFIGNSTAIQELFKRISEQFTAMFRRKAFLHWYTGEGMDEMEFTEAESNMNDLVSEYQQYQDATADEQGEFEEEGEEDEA

| Compound | IC50 [1] [nM] | melting point [°C] | IC50 (HCT116 cells) [nM] |
| --- | --- | --- | --- |
| CS(=O)(=O)c1nc(-c2ccccc2)c(C(=O)N2CCN(c3cccc(C#N)c3)CC2)[nH]1 [Example 70, 3-[4-(2-Methylsulfonyl-4-phenyl-1H-imidazol-4-ylcarbonyl)piperazin-1-yl]benzonitrile] | 3750 | 198 | – |
| N#Cc1cccc(N2CCN(C(=O)c3[nH]c(O)nc3-c3ccccc3)CC2)c1 [Example 75, 3-[4-(2-Hydroxy-4-phenyl-1H-imidazol-5-ylcarbonyl)piperazin-1-yl]-benzonitrile] | 1010 | 198 | 11.5 |
| NC(=O)c1cccc(N2CCN(C(=O)c3nc(O)[nH]c3-c3ccccc3)CC2)c1 [Example 51, 3-[4-(2-Hydroxy-4-phenyl-1H-imidazol-5-yl-carbonyl)piperazin-1-yl]benzamide] | 500 | 202 | 1360 |
| COc1cc(OC)cc(N2CCN(C(=O)c3cncn3-c3ccccc3)CC2)c1 [Example 11, [4-(3,5-Dimethoxyphenyl)piperazin-1-yl](1-phenyl-1H-imidazol-5-yl)-methanone hydrochloride] | 2400 | – | 45.7 |
| NC(=O)c1cccc(N2CCN(C(=O)c3c(-c4ccccc4)ccn3CC(=O)O)CC2)c1 [Example 73, {2-[4-(3-Carbamoylphenyl)piperazin-1-ylcarbonyl]-3-phenylpyrrol-1-yl}acetic acid] | 18400 | – | 2700 |
| COc1cc(OC)cc(N2CCN(C(=O)c3[nH]c(S(C)(=O)=O)nc3-c3ccccc3)CC2)c1 [Example 67, [4-(3,5-Dimethoxyphenyl)piperazin-1-yl](2-methylsulfonyl-4-phenyl-1H-imidazol-5-yl)methanone] | 1650 | – | 2700 |
| N#Cc1cccc(N2CCN(C(=O)c3[nH]c(S)nc3-c3ccccc3)CC2)c1 [Example 52, 3-[4-(2-Mercapto-4-phenyl-1H-imidazol-5-yl-carbonyl)piperazin-1-yl]-benzonitrile] | 400 | 247 | 100 |
| COc1cc(OC)cc(N2CCN(C(=O)c3ccn(CCO)c3-c3ccccc3)CC2)c1 [Example 53, [4-(3,5-Dimethoxyphenyl)piperazin-1-yl][1-(2-hydroxyethyl)-2-phenyl-1H-pyrrol-3-yl]methanone] | 810 | 157 | 46 |
| O=C(c1nc(S)[nH]c1-c1ccccc1)N1CCN(c2cccc(Cl)c2)CC1 [Example 19, [4-(3-Chlorophenyl)piperazin-1-yl](2-mercapto-5-phenyl-1H-imidazol-4-yl)-methanone] | 750 | > 260 | 28.7 |
| COc1cc(OC)cc(N2CCN(C(=O)c3cn(C)cc3-c3ccccc3)CC2)c1 [Example 18, [4-(3,5-Dimethoxyphenyl)piperazin-1-yl](1-methyl-4-phenyl-1H-pyrrol-3-yl)methanone hydrochloride] | 970 | – | 3.8 |
| NC(=O)c1cccc(N2CCN(C(=O)c3[nH]cnc3-c3ccccc3)CC2)c1 [Example 22, [4-(3-Carboxamidophenyl)piperazin-1-yl](4-phenyl-1H-imidazol-5-yl)-methanone] | 1100 | – | 193 |
| COc1cc(OC)cc(N2CCN(C(=O)c3cn(CCCC(=O)O)cc3-c3ccccc3)CC2)c1 [Example 46, 4-{3-[4-(3,5-Dimethoxyphenyl)piperazin-1-yl]carbonyl-4-phenyl-1H-pyrrol-1-yl}-butanoic acid] | 4350 | – | 6380 |

Now from value to compound:

| IC50 [1] [nM] | melting point [°C] | IC50 (HCT116 cells) [nM] | Compound |
| --- | --- | --- | --- |
| 2400 | 158 | 307 | N#Cc1cccc(N2CCN(C(=O)c3ccn(CCO)c3-c3ccccc3)CC2)c1 [Example 81, 3-[4-(1-Hydroxyethyl-2-phenyl-1H-pyrrol-3-ylcarbonyl)piperazin-1-yl]-benzonitrile] |
| 600 | 196 | 1.3 | COc1cc(OC)cc(N2CCN(C(=O)c3[nH]cnc3-c3ccccc3)CC2)c1 [Example 9, [4-(3,5-Dimethoxyphenyl)piperazin-1-yl](4-phenyl-1H-imidazol-5-yl)-methanone] |
| 3050 | 80 | 52 | N#Cc1cccc(N2CCN(C(=O)c3cc[nH]c3-c3ccccc3)CC2)c1 [Example 74, 3-[4-(2-Phenyl-1H-pyrrol-3-ylcarbonyl)piperazin-1-yl]benzonitrile] |
| 1900 | 130 | 15.1 | COc1cc(OC)cc(N2CCN(C(=O)c3ccn(C)c3-c3ccccc3)CC2)c1 [Example 27, [4-(3,5-Dimethoxyphenyl)piperazin-1-yl](1-methyl-2-phenyl-1H-pyrrol-3-yl)-methanone] |
| 294 | 246 | – | N#Cc1cccc(N2CCN(C(=O)c3sc(N)nc3-c3ccccc3)CC2)c1 [Example 82, 3-[4-(2-Amino-4-phenylthiazol-5-ylcarbonyl)piperazin-1-yl]benzonitrile] |
| 1100 | 130 | 1.5 | COc1cc(OC)cc(N2CCN(C(=O)c3[nH]c(O)nc3-c3ccccc3)CC2)c1 [Example 28, [4-(3,5-Dimethoxyphenyl)piperazin-1-yl](2-hydroxy-5-phenyl-1H-imidazol-4-yl)methanone] |
| 715 | 176 | – | Nc1nc(-c2ccccc2)c(C(=O)N2CCN(c3cccc(CO)c3)CC2)s1 [Example 88, [4-(3-Hydroxymethylphenyl)piperazin-1-yl](2-amino-4-phenylthiazol-5-yl)-methanone] |
| 4000 | 150 | – | COc1cc(OC)cc(N2CCN(C(=O)c3ccn(C(C)=O)c3-c3ccccc3)CC2)c1 [Example 63, [4-(3,5-Dimethoxyphenyl)piperazin-1-yl](1-acetyl-2-phenyl-1H-pyrrol-3-yl)methanone] |
| 1330 | – | 123 | COc1cc(OC)cc(N2CCN(C(=O)c3cn(C(C)=O)cc3-c3ccccc3)CC2)c1 [Example 41, 1-{3-[4-(3,5-Dimethoxyphenyl)piperazin-1-yl-carbonyl]-4-phenylpyrrol-1-yl}-ethanone] |
| 685 | 236 | – | NC(=O)c1cccc(N2CCN(C(=O)c3sc(N)nc3-c3ccccc3)CC2)c1 [Example 85, 3-[4-(2-Amino-4-phenyl-thiazol-5-ylcarbonyl)piperazin-1-yl]benzamide] |
| 795 | 173 | 17 | O=C(c1[nH]c(O)nc1-c1ccccc1)N1CCN(c2cccc(CO)c2)CC1 [Example 57, [4-(3-Hydroxymethylphenyl)piperazin-1-yl](2-hydroxy-4-phenyl-1H-imidazol-5-yl)methanone] |
| 1080 | – | 1890 | NC(=O)c1cccc(N2CCN(C(=O)c3[nH]c(C(F)(F)F)nc3-c3ccccc3)CC2)c1 [Example 54, 3-[4-(2-Trifluoromethyl-4-phenyl-1H-imidazol-5-ylcarbonyl)piperazin-1-yl]-benzamide] |
| 4450 | – | 334 | NC(=O)c1cccc(N2CCN(C(=O)c3c[nH]cc3-c3ccccc3)CC2)c1 [Example 58, 3-[4-(4-Phenyl-1H-pyrrol-3-ylcarbonyl)piperazin-1-yl]benzamide] |
| 710 | – | 45 | Cn1cc(C(=O)N2CCN(c3cccc(CO)c3)CC2)c(-c2ccccc2)c1 [Example 69] |
| 9500 | – | 114 | COc1cc(OC)cc(N2CCN(C(=O)c3nc(SC)n(C)c3-c3ccccc3)CC2)c1 [Example 24, [4-(3,5-Dimethoxyphenyl)piperazin-1-yl](N-methyl-2-methylsulfanyl-5-phenyl-1H-imidazol-4-yl)methanone] |
| 22000 | – | 8750 | O=C(c1ncoc1-c1ccccc1)N1CCN(c2cccc(Cl)c2)CC1 [Example 2, [4-(3-Chlorophenyl)piperazin-1-yl](5-phenyl-1,3-oxazol-4-yl)methanone] |
